For this assay, the target named is PI3Kδ (PI3Kd) (Homo sapiens (Human), UniProt O00329). In words: PI3K HTRF enzymatic inhibition assay (cell-free), delta isoform. The conditions noted are these: read-out: IC50 PI3Kd HTRF; recombinant PI3K delta, [ATP] 15 μM, [PIP2] 2 μM, 30 min preincubation. For orientation: Time-resolved FRET reads energy transfer from a long-lived donor to a nearby acceptor.
Chain of PI3Kδ (PI3Kd) (O00329 whole entry, canonical isoform): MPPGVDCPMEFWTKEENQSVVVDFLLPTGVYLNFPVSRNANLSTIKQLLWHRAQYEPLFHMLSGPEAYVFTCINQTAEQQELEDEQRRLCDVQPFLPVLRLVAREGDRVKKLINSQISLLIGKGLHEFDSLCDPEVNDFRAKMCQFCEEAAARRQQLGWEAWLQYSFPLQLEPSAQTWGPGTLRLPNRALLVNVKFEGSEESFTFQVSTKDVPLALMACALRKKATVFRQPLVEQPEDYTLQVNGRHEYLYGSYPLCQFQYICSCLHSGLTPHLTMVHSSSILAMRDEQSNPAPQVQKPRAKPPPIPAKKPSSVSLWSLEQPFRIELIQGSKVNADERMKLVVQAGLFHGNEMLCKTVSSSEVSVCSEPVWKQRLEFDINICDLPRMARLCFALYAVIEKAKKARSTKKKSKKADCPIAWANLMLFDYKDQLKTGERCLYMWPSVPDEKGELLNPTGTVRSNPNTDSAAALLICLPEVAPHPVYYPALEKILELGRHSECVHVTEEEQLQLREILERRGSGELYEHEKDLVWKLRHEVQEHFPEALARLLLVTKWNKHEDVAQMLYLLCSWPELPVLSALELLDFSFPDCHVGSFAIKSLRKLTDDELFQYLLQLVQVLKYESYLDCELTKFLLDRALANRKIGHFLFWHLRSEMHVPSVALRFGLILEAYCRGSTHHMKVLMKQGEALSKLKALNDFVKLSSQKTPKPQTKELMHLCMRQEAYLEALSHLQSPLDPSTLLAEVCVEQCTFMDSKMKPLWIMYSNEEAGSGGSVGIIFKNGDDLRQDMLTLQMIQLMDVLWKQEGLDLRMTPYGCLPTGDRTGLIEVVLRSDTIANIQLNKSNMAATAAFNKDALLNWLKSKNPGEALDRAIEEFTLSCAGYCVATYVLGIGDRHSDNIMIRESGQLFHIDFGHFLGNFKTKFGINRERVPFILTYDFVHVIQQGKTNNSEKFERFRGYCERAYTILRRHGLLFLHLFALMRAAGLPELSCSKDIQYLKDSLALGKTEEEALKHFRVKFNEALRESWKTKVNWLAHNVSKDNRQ
Chain of PI3Kδ (PI3Kd) (P27986 whole entry partner, canonical isoform): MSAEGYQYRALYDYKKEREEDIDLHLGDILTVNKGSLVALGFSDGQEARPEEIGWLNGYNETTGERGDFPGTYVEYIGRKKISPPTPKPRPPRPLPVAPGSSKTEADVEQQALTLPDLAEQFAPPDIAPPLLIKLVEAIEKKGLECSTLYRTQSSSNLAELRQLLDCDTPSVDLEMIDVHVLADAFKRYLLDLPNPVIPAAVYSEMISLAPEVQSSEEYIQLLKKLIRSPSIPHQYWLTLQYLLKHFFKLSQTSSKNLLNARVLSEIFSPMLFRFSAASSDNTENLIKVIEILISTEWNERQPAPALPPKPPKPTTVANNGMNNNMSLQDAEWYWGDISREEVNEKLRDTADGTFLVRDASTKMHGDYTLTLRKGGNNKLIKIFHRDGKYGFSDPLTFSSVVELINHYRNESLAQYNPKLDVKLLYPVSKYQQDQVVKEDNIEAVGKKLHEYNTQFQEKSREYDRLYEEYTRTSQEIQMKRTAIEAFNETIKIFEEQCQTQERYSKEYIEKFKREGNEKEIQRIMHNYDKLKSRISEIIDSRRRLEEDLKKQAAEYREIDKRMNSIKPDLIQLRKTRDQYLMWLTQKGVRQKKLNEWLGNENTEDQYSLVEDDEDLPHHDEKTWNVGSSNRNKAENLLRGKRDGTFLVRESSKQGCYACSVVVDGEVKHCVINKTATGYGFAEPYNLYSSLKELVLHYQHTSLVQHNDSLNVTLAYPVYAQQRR
With `Cc1nnc(-c2cccc(-c3c[nH]c4ncnc(N[C@@H](C)c5nn6ccc(C)c6c(=O)n5-c5ccccc5)c34)c2)o1` [Example 188, (S)-5-Methyl-2-(1-((5-(3-(5-methyl-1,3,4-oxadiazol-2-yl)phenyl)-7H-pyrrolo[2,3-d]pyrimidin-4-yl)amino)ethyl)-3-phenylpyrrolo[2,1-f][1,2,4]triazin-4(3H)-one], the IC50 (as a rule, the concentration needed to halve the response being measured) worked out at 400 pM.
In the case of `Cc1ccn2nc([C@H](C)Nc3ncnc(N)c3C(=O)Oc3cc(O)cc(NS(C)(=O)=O)c3)n(-c3ccccc3)c(=O)c12` [Example 195, (S)-3-Hydroxy-5-(methylsulfonamido)phenyl 4-amino-6-((1-(5-methyl-4-oxo-3-phenyl-3,4-dihydropyrrolo[2,1-f][1,2,4]triazin-2-yl)ethyl)amino)pyrimidine-5-carboxylate], the IC50 turned out to be 200 pM.
The result for `COc1ccc(S(=O)(=O)n2ccc3ccc(-c4c(N)ncnc4N[C@@H](C)c4nn5ccc(C)c5c(=O)n4-c4ccccc4)cc32)cc1` [Example 199, (S)-2-(1-((6-Amino-5-(1-((4-methoxyphenyl)sulfonyl)-1H-indol-6-yl)pyrimidin-4-yl)amino)ethyl)-5-methyl-3-phenylpyrrolo[2,1-f][1,2,4]triazin-4(3H)-one] reads 3000 pM; that for `Cc1ccn2nc([C@H](C)Nc3ncnc4[nH]cc(-c5cc(NS(C)(=O)=O)c6cc[nH]c6c5)c34)n(-c3ccccc3)c(=O)c12` [Example 209, (S)—N-(6-(4-((1-(5-Methyl-4-oxo-3-phenyl-3,4-dihydropyrrolo[2,1-f][1,2,4]triazin-2-yl)ethyl)amino)-7H-pyrrolo[2,3-d]pyrimidin-5-yl)-1H-indol-4-yl)methanesulfonamide], 200 pM.
On to `CCNc1ncc(-c2c(N)ncnc2N[C@@H](C)c2nn3ccc(C)c3c(=O)n2-c2ccccc2)cc1NS(=O)(=O)c1ccc(O)cc1` [Example 218, (S)—N-(5-(4-Amino-6-((1-(5-methyl-4-oxo-3-phenyl-3,4-dihydropyrrolo[2,1-f][1,2,4]triazin-2-yl)ethyl)amino)pyrimidin-5-yl)-2-(ethylamino)pyridin-3-yl)-4-hydroxybenzenesulfonamide], for which the IC50 was 5000 pM.
Turning to `Cc1ccn2nc([C@H](C)Nc3ncnc4[nH]cc(-c5cc(NS(C)(=O)=O)cc(C(=O)N(C)C)c5)c34)n(-c3ccccc3)c(=O)c12` [Example 219, (S)—N,N-dimethyl-3-(4-((1-(5-methyl-4-oxo-3-phenyl-3,4-dihydropyrrolo[2,1-f][1,2,4]triazin-2-yl)ethyl)amino)-7H-pyrrolo[2,3-d]pyrimidin-5-yl)-5-(methylsulfonamido)benzamide], the IC50 came to 300 pM.
Consider `Cc1ccn2nc([C@H](C)Nc3ncnc4[nH]cc(-c5ccnc(N6CCC(N(C)C)CC6)c5)c34)n(-c3ccccc3)c(=O)c12` [Example 225, (S)-2-(1-((5-(2-(4-(Dimethylamino)piperidin-1-yl)pyridin-4-yl)-7H-pyrrolo[2,3-d]pyrimidin-4-yl)amino)ethyl)-5-methyl-3-phenylpyrrolo[2,1-f][1,2,4]triazin-4(3H)-one], for which the IC50 came to 400 pM.
On to `Cc1ccn2nc([C@H](C)Nc3ncnc4[nH]cc(-c5ccc(NS(=O)(=O)N(C)C)cc5O)c34)n(-c3ccccc3)c(=O)c12` [Example 239, N′-[3-Hydroxy-4-(4-{[(1S)-1-(5-methyl-4-oxo-3-phenyl-3,4-dihydropyrrolo[2,1-f][1,2,4]triazin-2-yl)ethyl]amino}-7H-pyrrolo[2,3-d]pyrimidin-5-yl)phenyl]-N,N-dimethylsulfamide], for which the IC50 worked out at 2000 pM.
As for “(S)—N-(6-(4-Amino-6-((1-(5-methyl-4-oxo-3-phenyl-3,4-dihydropyrrolo[2,1-f][1,2,4]triazin-2-yl)ethyl)amino)pyrimidin-5-yl)-1H-indol-4-yl)-4-hydroxybenzenesulfonamide [Example 190]”, the IC50 amounted to 800 pM.
Regarding “(S)—N-((1H-Pyrazol-4-yl)ethyl)-4-((1-(5-methyl-4-oxo-3-phenyl-3,4-dihydropyrrolo[2,1-f][1,2,4]triazin-2-yl)ethyl)amino)-7H-pyrrolo[2,3-d]pyrimidine-5-carboxamide [Example 88]”, the IC50 stood at 41000 pM.

The values are drawn from US9388189B2, “Pyrrolotriazinone derivatives as PI3K inhibitors” (ALMIRALL, S.A., priority 2012, dated 2016).
